Source: PubChem BioAssay AID1963433 (Molecular Pharmacology Branch, DTP, NCI, 2024)

Test system: 772245-204-R-J1-PDC complex spheroid growth
Assay: Anticancer human tumor 772245-204-R-J1-PDC patient-derived rhabdomyosarcoma cell line growth inhibition [Asc]
Details: for IC50: curve of first compound; for viability, T/C: stronger effect = lower value
Outline: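 Tumor cells were grown as complex spheroids with human endothelial cells (HUVEC) and human mesenchymal stem cells as stroma. Agents were tested alone and in combination, in half-log steps down from the clinical Cmax, or from 10 microM where Cmax was unknown.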

[1] = second compound 0.01 µM, first compound 0.0316 µM
[2] = second compound 0.01 µM, first compound 0.1 µM
[3] = second compound 0.0316 µM, first compound 0.0316 µM
[4] = second compound 0.0316 µM, first compound 0.1 µM
[5] = second compound 0.1 µM, first compound 0.0316 µM
[6] = second compound 0.1 µM, first compound 0.1 µM
[7] = second compound 0.316 µM, first compound 0.0316 µM
[8] = second compound 0.316 µM, first compound 0.1 µM
[9] = second compound 1 µM, first compound 0.0316 µM
[10] = second compound 1 µM, first compound 0.1 µM
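Note: compound exposure lasted seven days.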
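Throughout, for viability, T/C: 100% = DMSO vehicle control viability.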

Cc1nc(N2CCC3(CC2)COC(C)C3N)c(CO)nc1Sc1ccnc(N)c1Cl (configuration not stated) + CNC(C)C(=O)NC1CN(S(=O)(=O)c2cccc(S(=O)(=O)N3CCC4CCC(C(=O)NC(c5ccccc5)c5ccccc5)N4C(=O)C(NC(=O)C(C)NC)C3)c2)CCC2CCC(C(=O)NC(c3ccccc3)c3ccccc3)N2C1=O
IC50 (second compound 0.00316 µM): > 3 µM | IC50 (second compound 0.01 µM): > 3 µM | IC50 (second compound 0.0316 µM): > 3 µM | IC50 (second compound 0.1 µM): > 3 µM | IC50 (second compound 0.316 µM): > 3 µM | IC50 (second compound 1 µM): > 3 µM | viability, T/C (second compound 0.00316 µM, first compound 0.00949 µM): 101% | viability, T/C (second compound 0.00316 µM, first compound 0.03 µM): 105% | viability, T/C (second compound 0.00316 µM, first compound 0.0949 µM): 109% | viability, T/C (second compound 0.00316 µM, first compound 0.3 µM): 105% | viability, T/C (second compound 0.00316 µM, first compound 0.949 µM): 115% | viability, T/C (second compound 0.00316 µM, first compound 3 µM): 92.9% | viability, T/C (second compound 0.01 µM, first compound 0.00949 µM): 108% | viability, T/C (second compound 0.01 µM, first compound 0.03 µM): 93.4% | viability, T/C (second compound 0.01 µM, first compound 0.0949 µM): 107% | viability, T/C (second compound 0.01 µM, first compound 0.3 µM): 117% | viability, T/C (second compound 0.01 µM, first compound 0.949 µM): 102% | viability, T/C (second compound 0.01 µM, first compound 3 µM): 75.4% | viability, T/C (second compound 0.0316 µM, first compound 0.00949 µM): 104% | viability, T/C (second compound 0.0316 µM, first compound 0.03 µM): 99.3% | viability, T/C (second compound 0.0316 µM, first compound 0.0949 µM): 105% | viability, T/C (second compound 0.0316 µM, first compound 0.3 µM): 101% | viability, T/C (second compound 0.0316 µM, first compound 0.949 µM): 88.3% | viability, T/C (second compound 0.0316 µM, first compound 3 µM): 78.6% | viability, T/C (second compound 0.1 µM, first compound 0.00949 µM): 105% | viability, T/C (second compound 0.1 µM, first compound 0.03 µM): 99.1% | viability, T/C (second compound 0.1 µM, first compound 0.0949 µM): 88.4% | viability, T/C (second compound 0.1 µM, first compound 0.3 µM): 98.6% | viability, T/C (second compound 0.1 µM, first compound 0.949 µM): 99.6% | viability, T/C (second compound 0.1 µM, first compound 3 µM): 75.9% | viability, T/C (second compound 0.316 µM, first compound 0.00949 µM): 101% | viability, T/C (second compound 0.316 µM, first compound 0.03 µM): 90.6% | viability, T/C (second compound 0.316 µM, first compound 0.0949 µM): 91.4% | viability, T/C (second compound 0.316 µM, first compound 0.3 µM): 99.1% | viability, T/C (second compound 0.316 µM, first compound 0.949 µM): 86.8% | viability, T/C (second compound 0.316 µM, first compound 3 µM): 74.7% | viability, T/C (second compound 1 µM, first compound 0.00949 µM): 95.8% | viability, T/C (second compound 1 µM, first compound 0.03 µM): 89% | viability, T/C (second compound 1 µM, first compound 0.0949 µM): 104% | viability, T/C (second compound 1 µM, first compound 0.3 µM): 90.6% | viability, T/C (second compound 1 µM, first compound 0.949 µM): 93.6% | viability, T/C (second compound 1 µM, first compound 3 µM): 66.9%

Cn1ncnc1[C@H]1c2n[nH]c(=O)c3cc(F)cc(c23)N[C@@H]1c1ccc(F)cc1 + CNC(C)C(=O)NC1CN(S(=O)(=O)c2cccc(S(=O)(=O)N3CCC4CCC(C(=O)NC(c5ccccc5)c5ccccc5)N4C(=O)C(NC(=O)C(C)NC)C3)c2)CCC2CCC(C(=O)NC(c3ccccc3)c3ccccc3)N2C1=O
IC50 (second compound 0.01 µM): > 0.1 µM | IC50 (second compound 0.0316 µM): > 0.1 µM | IC50 (second compound 0.1 µM): > 0.1 µM | IC50 (second compound 0.316 µM): > 0.1 µM | IC50 (second compound 1 µM): > 0.1 µM | viability, T/C (second compound 0.01 µM, first compound 0.000316 µM): 85.5% | viability, T/C (second compound 0.01 µM, first compound 0.001 µM): 83.7% | viability, T/C (second compound 0.01 µM, first compound 0.00316 µM): 91.7% | viability, T/C (second compound 0.01 µM, first compound 0.01 µM): 90% | viability, T/C [1]: 91% | viability, T/C [2]: 76.1% | viability, T/C (second compound 0.0316 µM, first compound 0.000316 µM): 98.9% | viability, T/C (second compound 0.0316 µM, first compound 0.001 µM): 94.9% | viability, T/C (second compound 0.0316 µM, first compound 0.00316 µM): 99.7% | viability, T/C (second compound 0.0316 µM, first compound 0.01 µM): 97.1% | viability, T/C [3]: 85% | viability, T/C [4]: 94.2% | viability, T/C (second compound 0.1 µM, first compound 0.000316 µM): 97% | viability, T/C (second compound 0.1 µM, first compound 0.001 µM): 96.6% | viability, T/C (second compound 0.1 µM, first compound 0.00316 µM): 85.7% | viability, T/C (second compound 0.1 µM, first compound 0.01 µM): 102% | viability, T/C [5]: 81.7% | viability, T/C [6]: 79.4% | viability, T/C (second compound 0.316 µM, first compound 0.000316 µM): 97.3% | viability, T/C (second compound 0.316 µM, first compound 0.001 µM): 96.2% | viability, T/C (second compound 0.316 µM, first compound 0.00316 µM): 96.1% | viability, T/C (second compound 0.316 µM, first compound 0.01 µM): 82.2% | viability, T/C [7]: 89.2% | viability, T/C [8]: 94.4% | viability, T/C (second compound 1 µM, first compound 0.000316 µM): 112% | viability, T/C (second compound 1 µM, first compound 0.001 µM): 88.4% | viability, T/C (second compound 1 µM, first compound 0.00316 µM): 97.8% | viability, T/C (second compound 1 µM, first compound 0.01 µM): 85.3% | viability, T/C [9]: 84.2% | viability, T/C [10]: 85.6%

O=C(c1cc(Cc2n[nH]c(=O)c3ccccc23)ccc1F)N1CCN(C(=O)C2CC2)CC1 + CNC(C)C(=O)NC1CN(S(=O)(=O)c2cccc(S(=O)(=O)N3CCC4CCC(C(=O)NC(c5ccccc5)c5ccccc5)N4C(=O)C(NC(=O)C(C)NC)C3)c2)CCC2CCC(C(=O)NC(c3ccccc3)c3ccccc3)N2C1=O
IC50 (second compound 0.01 µM): > 10 µM | IC50 (second compound 0.0316 µM): > 10 µM | IC50 (second compound 0.1 µM): > 10 µM | IC50 (second compound 0.316 µM): > 10 µM | IC50 (second compound 1 µM): > 10 µM | viability, T/C [1]: 93.6% | viability, T/C [2]: 99.7% | viability, T/C (second compound 0.01 µM, first compound 0.316 µM): 99% | viability, T/C (second compound 0.01 µM, first compound 1 µM): 98.5% | viability, T/C (second compound 0.01 µM, first compound 3.16 µM): 80.5% | viability, T/C (second compound 0.01 µM, first compound 10 µM): 81.1% | viability, T/C [3]: 106% | viability, T/C [4]: 104% | viability, T/C (second compound 0.0316 µM, first compound 0.316 µM): 88.6% | viability, T/C (second compound 0.0316 µM, first compound 1 µM): 113% | viability, T/C (second compound 0.0316 µM, first compound 3.16 µM): 96.1% | viability, T/C (second compound 0.0316 µM, first compound 10 µM): 97.7% | viability, T/C [5]: 103% | viability, T/C [6]: 99.2% | viability, T/C (second compound 0.1 µM, first compound 0.316 µM): 98% | viability, T/C (second compound 0.1 µM, first compound 1 µM): 86.7% | viability, T/C (second compound 0.1 µM, first compound 3.16 µM): 78.3% | viability, T/C (second compound 0.1 µM, first compound 10 µM): 76.5% | viability, T/C [7]: 102% | viability, T/C [8]: 106% | viability, T/C (second compound 0.316 µM, first compound 0.316 µM): 106% | viability, T/C (second compound 0.316 µM, first compound 1 µM): 94.5% | viability, T/C (second compound 0.316 µM, first compound 3.16 µM): 81.2% | viability, T/C (second compound 0.316 µM, first compound 10 µM): 78% | viability, T/C [9]: 106% | viability, T/C [10]: 94.1% | viability, T/C (second compound 1 µM, first compound 0.316 µM): 103% | viability, T/C (second compound 1 µM, first compound 1 µM): 97.2% | viability, T/C (second compound 1 µM, first compound 3.16 µM): 82.6% | viability, T/C (second compound 1 µM, first compound 10 µM): 94.8%
